According to ChEMBL document CHEMBL4800729 (2021):

How the values were obtained:
[1] = molecular target: 5-hydroxytryptamine receptor 2B (Homo sapiens, UniProt P41595); test: GPCRScan assay: inhibition of 5-HT2B; parameters: radioligand conc. used [nm] 1.0 – 2.0, parental cells stable HEK
[2] = molecular target: Activated CDC42 kinase 1 (Homo sapiens) (UniProt Q07912); test: ACK1(h) Millipore kinase panel; details: Compound concentration 1.0 uM
[3] = molecular target: Activin receptor type-1B (Homo sapiens) (UniProt P36896); test: Alk4(h) Millipore kinase panel; details: Compound concentration 1.0 uM
[4] = molecular target: Aurora kinase A (Homo sapiens) (UniProt O14965); test: Aurora_A(h) Millipore kinase panel; details: Compound concentration 1.0 uM
[5] = molecular target: Cyclin-dependent kinase 4/cyclin D (Homo sapiens) (UniProt P11802+P24385+P30281+P30279); test: CDK4/cyclinD Millipore kinase panel; assay type: protein-complex assay; details: Compound concentration 1.0 uM
[6] = molecular target: Casein kinase I isoform delta (Homo sapiens) (UniProt P48730); test: CK1delta(h) Millipore kinase panel; details: Compound concentration 1.0 uM
[7] = molecular target: Eukaryotic elongation factor 2 kinase (Homo sapiens) (UniProt O00418); test: eEF-2K(h) Millipore kinase panel; details: Compound concentration 1.0 uM
[8] = molecular target: Ephrin type-A receptor 7 (Homo sapiens) (UniProt Q15375); test: EphA7(h) Millipore kinase panel; details: Compound concentration 1.0 uM
[9] = molecular target: Ephrin type-B receptor 2 (Homo sapiens) (UniProt P29323); test: EphB2(h) Millipore kinase panel; details: Compound concentration 1.0 uM
[10] = molecular target: Fibroblast growth factor receptor 3 (Homo sapiens) (UniProt P22607); test: FGFR3(h) Millipore kinase panel; details: Compound concentration 1.0 uM
[11] = molecular target: Macrophage colony-stimulating factor 1 receptor (Homo sapiens) (UniProt P07333); test: Fms(h) Millipore kinase panel; details: Compound concentration 1.0 uM
[12] = molecular target: G protein-coupled receptor kinase 6 (Homo sapiens) (UniProt P43250); test: GRK6(h) Millipore kinase panel; details: Compound concentration 1.0 uM
[13] = molecular target: Eukaryotic translation initiation factor 2-alpha kinase 1 (Homo sapiens) (UniProt Q9BQI3); test: HRI(h) Millipore kinase panel; details: Compound concentration 1.0 uM
[14] = molecular target: Insulin-like growth factor 1 receptor (Homo sapiens) (UniProt P08069); test: IGF-1R(h), activated Millipore kinase panel; details: Compound concentration 1.0 uM
[15] = molecular target: LIM domain kinase 1 (Homo sapiens) (UniProt P53667); test: LIMK1(h) Millipore kinase panel; details: Compound concentration 1.0 uM
[16] = molecular target: LIM domain kinase 2 (Homo sapiens) (UniProt P53671); test: LIMK2(h) Millipore kinase panel; details: Compound concentration 1.0 uM
[17] = molecular target: Mitogen-activated protein kinase 1 (Homo sapiens) (UniProt P28482); test: MAPK1(h) Millipore kinase panel; details: Compound concentration 1.0 uM
[18] = molecular target: Dual specificity mitogen-activated protein kinase kinase 1 (Homo sapiens) (UniProt Q02750); test: MEK1(h) Millipore kinase panel; details: Compound concentration 1.0 uM
[19] = molecular target: Misshapen-like kinase 1 (Homo sapiens) (UniProt Q8N4C8); test: MINK(h) Millipore kinase panel; details: Compound concentration 1.0 uM
[20] = molecular target: Mitogen-activated protein kinase kinase kinase 10 (Homo sapiens) (UniProt Q02779); test: MLK2(h) Millipore kinase panel; details: Compound concentration 1.0 uM
[21] = molecular target: Ribosomal protein S6 kinase alpha-5 (Homo sapiens) (UniProt O75582); test: MSK1(h) Millipore kinase panel; details: Compound concentration 1.0 uM
[22] = molecular target: Serine/threonine-protein kinase Nek3 (Homo sapiens) (UniProt P51956); test: NEK3(h) Millipore kinase panel; details: Compound concentration 1.0 uM
[23] = molecular target: Platelet-derived growth factor receptor beta (Homo sapiens) (UniProt P09619); test: PDGFRbeta(h) Millipore kinase panel; details: Compound concentration 1.0 uM
[24] = molecular target: Serine/threonine-protein kinase PLK4 (Homo sapiens) (UniProt O00444); test: Plk4(h) Millipore kinase panel; details: Compound concentration 1.0 uM
[25] = molecular target: Ribosomal protein S6 kinase alpha-2 (Homo sapiens) (UniProt Q15349); test: Rsk3(h) Millipore kinase panel; details: Compound concentration 1.0 uM
[26] = molecular target: STE20-like serine/threonine-protein kinase (Homo sapiens) (UniProt Q9H2G2); test: SLK(h) Millipore kinase panel; details: Compound concentration 1.0 uM
[27] = molecular target: SRSF protein kinase 1 (Homo sapiens) (UniProt Q96SB4); test: SRPK1(h) Millipore kinase panel; details: Compound concentration 1.0 uM
[28] = molecular target: SRSF protein kinase 2 (Homo sapiens) (UniProt P78362); test: SRPK2(h) Millipore kinase panel; details: Compound concentration 1.0 uM
[29] = molecular target: Serine/threonine-protein kinase 32B (Homo sapiens) (UniProt Q9NY57); test: STK32B(h) Millipore kinase panel; details: Compound concentration 1.0 uM
[30] = molecular target: Transcription initiation factor TFIID subunit 1-like (Homo sapiens) (UniProt Q8IZX4); test: TAF1L(h) Millipore kinase panel; details: Compound concentration 1.0 uM
[31] = molecular target: Serine/threonine-protein kinase TAO3 (Homo sapiens) (UniProt Q9H2K8); test: TAO3(h) Millipore kinase panel; details: Compound concentration 1.0 uM
[32] = molecular target: Serine/threonine-protein kinase tousled-like 1 (Homo sapiens) (UniProt Q9UKI8); test: TLK1(h) Millipore kinase panel; details: Compound concentration 1.0 uM
[33] = molecular target: Testis-specific serine/threonine-protein kinase 3 (Homo sapiens) (UniProt Q96PN8); test: TSSK3(h) Millipore kinase panel; details: Compound concentration 1.0 uM
[34] = molecular target: Non-receptor tyrosine-protein kinase TYK2 (Homo sapiens) (UniProt P29597); test: TYK2(h) Millipore kinase panel; details: Compound concentration 1.0 uM
Homo sapiens = organism: Homo sapiens; test: CDK9/cyclinT1(h) Millipore kinase panel; details: Compound concentration 1.0 uM
[35] = molecular target: MAP kinase-activated protein kinase 2 (Homo sapiens) (UniProt P49137); test: MAPKAP-K2(h) Millipore kinase panel; details: Compound concentration 1.0 uM
[36] = molecular target: Prostaglandin G/H synthase 2 (Homo sapiens) (UniProt P35354); test: Cyclooxygenase COX-2 Eurofins-Panlabs enzyme assay; parameters: substrate with concentration; details: Compound concentration 10.0 uM
[37] = molecular target: 5-hydroxytryptamine receptor 2A (Homo sapiens) (UniProt P28223); details: Compound concentration 10.0 uM
D(1A) dopamine receptor = D(1A) dopamine receptor (Homo sapiens, UniProt P21728); details: Compound concentration 10.0 uM
[38] = molecular target: Sigma intracellular receptor 2 (Homo sapiens) (UniProt Q5BJF2); details: Compound concentration 10.0 uM
[39] = molecular target: Histamine H1 receptor (Homo sapiens) (UniProt P35367); details: Compound concentration 10.0 uM
[40] = molecular target: Muscarinic acetylcholine receptor M2 (Homo sapiens) (UniProt P08172); details: Compound concentration 10.0 uM
[41] = molecular target: Delta-type opioid receptor (Homo sapiens) (UniProt P41143); details: Compound concentration 10.0 uM
[42] = molecular target: Beta-3 adrenergic receptor (Homo sapiens) (UniProt P13945); details: Compound concentration 10.0 uM
[43] = molecular target: Cannabinoid receptor 2 (Homo sapiens) (UniProt P34972); details: Compound concentration 10.0 uM
[44] = molecular target: Androgen receptor (Homo sapiens) (UniProt P10275); details: Compound concentration 10.0 uM
[45] = molecular target: Equilibrative nucleoside transporter 1/2/3/4 (Homo sapiens) (UniProt Q99808+Q7RTT9+Q14542+Q9BZD2); details: Compound concentration 10.0 uM

Fibroblast growth factor receptor 3 (Homo sapiens), sequence (P22607 23-806 limits assumed): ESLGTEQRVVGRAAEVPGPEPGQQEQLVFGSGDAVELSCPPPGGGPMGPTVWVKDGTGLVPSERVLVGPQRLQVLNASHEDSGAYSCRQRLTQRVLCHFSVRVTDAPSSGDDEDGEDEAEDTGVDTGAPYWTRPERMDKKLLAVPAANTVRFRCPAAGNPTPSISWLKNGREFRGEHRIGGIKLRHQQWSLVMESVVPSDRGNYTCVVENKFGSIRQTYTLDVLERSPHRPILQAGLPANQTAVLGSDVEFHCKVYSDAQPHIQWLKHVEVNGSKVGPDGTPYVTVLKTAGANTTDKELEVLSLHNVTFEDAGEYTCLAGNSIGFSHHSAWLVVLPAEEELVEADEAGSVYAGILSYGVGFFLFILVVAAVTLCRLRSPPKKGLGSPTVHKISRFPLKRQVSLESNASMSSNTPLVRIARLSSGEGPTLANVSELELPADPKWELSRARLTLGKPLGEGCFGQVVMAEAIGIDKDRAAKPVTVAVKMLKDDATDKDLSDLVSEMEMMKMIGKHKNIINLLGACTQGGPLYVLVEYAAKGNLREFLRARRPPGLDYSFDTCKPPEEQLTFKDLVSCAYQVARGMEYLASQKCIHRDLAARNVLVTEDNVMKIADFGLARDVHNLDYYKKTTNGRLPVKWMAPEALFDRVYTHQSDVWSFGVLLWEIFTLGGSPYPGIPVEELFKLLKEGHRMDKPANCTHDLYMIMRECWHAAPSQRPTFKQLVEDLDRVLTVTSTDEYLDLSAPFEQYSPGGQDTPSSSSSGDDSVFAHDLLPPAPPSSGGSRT
G protein-coupled receptor kinase 6 (Homo sapiens), sequence (P43250 whole entry, looked up): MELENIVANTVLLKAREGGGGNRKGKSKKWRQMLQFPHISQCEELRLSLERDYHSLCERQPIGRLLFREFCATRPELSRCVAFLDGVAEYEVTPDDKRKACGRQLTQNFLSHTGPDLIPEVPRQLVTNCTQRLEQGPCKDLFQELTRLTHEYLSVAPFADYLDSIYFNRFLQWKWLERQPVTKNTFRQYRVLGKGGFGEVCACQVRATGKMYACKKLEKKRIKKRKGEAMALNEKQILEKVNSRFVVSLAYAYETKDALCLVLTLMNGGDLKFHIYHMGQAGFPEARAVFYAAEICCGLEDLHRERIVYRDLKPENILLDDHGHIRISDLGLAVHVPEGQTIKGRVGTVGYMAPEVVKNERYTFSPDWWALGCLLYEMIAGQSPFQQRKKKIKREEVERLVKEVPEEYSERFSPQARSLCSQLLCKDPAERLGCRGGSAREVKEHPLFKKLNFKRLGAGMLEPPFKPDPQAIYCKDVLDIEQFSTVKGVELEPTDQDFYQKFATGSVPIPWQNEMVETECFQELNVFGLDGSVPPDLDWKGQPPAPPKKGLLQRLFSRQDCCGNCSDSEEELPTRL
SRSF protein kinase 2 (Homo sapiens), sequence (P78362 whole entry, looked up): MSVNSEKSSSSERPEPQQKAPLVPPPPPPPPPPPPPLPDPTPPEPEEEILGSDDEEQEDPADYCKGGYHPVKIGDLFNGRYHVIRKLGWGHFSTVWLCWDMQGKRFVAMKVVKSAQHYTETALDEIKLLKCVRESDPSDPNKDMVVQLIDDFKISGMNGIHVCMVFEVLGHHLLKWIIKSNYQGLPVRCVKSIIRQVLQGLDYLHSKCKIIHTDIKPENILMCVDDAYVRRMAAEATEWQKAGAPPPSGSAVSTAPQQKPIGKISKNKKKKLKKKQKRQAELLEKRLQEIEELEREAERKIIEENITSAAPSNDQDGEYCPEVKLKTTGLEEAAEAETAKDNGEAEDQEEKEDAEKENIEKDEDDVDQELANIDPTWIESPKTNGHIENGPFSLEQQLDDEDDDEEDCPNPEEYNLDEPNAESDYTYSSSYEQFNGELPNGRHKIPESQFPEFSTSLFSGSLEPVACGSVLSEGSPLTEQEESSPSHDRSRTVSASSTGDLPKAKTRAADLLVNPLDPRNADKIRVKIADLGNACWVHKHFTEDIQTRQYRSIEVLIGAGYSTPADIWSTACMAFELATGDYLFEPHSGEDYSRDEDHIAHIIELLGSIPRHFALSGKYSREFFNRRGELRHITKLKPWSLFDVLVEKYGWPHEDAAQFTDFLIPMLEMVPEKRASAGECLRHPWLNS
Ribosomal protein S6 kinase alpha-2 (Homo sapiens), sequence (Q15349 whole entry): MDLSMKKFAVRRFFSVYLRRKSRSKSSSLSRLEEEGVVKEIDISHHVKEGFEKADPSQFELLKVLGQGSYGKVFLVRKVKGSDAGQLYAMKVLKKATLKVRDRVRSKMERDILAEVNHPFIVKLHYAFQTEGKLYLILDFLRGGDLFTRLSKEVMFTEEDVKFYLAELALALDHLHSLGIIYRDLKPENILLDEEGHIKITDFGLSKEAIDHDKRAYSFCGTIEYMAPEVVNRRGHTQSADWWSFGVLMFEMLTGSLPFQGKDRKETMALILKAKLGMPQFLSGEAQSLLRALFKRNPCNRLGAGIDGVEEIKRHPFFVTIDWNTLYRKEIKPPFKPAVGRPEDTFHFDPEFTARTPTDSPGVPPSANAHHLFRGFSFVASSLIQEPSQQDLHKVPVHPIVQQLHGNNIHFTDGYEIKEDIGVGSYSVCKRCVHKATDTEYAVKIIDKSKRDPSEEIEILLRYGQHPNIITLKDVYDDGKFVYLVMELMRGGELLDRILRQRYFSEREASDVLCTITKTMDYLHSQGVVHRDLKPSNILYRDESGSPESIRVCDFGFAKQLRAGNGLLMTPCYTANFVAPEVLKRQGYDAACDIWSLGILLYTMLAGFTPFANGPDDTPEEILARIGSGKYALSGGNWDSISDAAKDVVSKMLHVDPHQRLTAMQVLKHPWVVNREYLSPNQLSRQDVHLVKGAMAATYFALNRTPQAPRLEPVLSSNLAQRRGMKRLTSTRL
Ephrin type-B receptor 2 (Homo sapiens), sequence (P29323 whole entry): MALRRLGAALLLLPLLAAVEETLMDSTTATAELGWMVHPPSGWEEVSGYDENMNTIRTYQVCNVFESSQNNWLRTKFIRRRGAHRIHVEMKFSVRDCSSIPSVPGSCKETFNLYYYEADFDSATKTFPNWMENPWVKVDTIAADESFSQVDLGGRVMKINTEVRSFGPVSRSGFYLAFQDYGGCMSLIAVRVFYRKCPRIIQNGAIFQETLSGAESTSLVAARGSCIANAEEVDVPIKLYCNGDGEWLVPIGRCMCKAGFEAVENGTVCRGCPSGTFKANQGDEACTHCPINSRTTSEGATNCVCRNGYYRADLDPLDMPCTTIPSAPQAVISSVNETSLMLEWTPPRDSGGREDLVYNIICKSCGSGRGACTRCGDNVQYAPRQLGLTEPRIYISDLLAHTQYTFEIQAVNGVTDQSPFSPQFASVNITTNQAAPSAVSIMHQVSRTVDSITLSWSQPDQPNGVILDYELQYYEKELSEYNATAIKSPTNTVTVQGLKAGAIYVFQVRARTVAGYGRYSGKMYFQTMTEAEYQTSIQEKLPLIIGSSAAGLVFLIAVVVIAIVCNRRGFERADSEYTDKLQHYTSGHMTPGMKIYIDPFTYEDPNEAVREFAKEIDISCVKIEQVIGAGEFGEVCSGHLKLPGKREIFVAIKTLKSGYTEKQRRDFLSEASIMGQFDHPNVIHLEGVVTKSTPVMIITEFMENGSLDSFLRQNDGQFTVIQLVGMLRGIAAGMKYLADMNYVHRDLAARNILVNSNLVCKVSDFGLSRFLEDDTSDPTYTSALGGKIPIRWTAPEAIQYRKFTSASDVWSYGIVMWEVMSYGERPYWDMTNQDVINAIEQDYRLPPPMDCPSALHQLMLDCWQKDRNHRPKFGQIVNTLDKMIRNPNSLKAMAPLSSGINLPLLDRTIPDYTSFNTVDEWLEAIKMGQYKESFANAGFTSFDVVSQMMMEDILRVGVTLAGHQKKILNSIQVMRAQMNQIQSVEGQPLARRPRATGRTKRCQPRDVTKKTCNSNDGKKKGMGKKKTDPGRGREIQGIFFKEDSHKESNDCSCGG
Mitogen-activated protein kinase 1 (Homo sapiens), sequence (P28482 whole entry): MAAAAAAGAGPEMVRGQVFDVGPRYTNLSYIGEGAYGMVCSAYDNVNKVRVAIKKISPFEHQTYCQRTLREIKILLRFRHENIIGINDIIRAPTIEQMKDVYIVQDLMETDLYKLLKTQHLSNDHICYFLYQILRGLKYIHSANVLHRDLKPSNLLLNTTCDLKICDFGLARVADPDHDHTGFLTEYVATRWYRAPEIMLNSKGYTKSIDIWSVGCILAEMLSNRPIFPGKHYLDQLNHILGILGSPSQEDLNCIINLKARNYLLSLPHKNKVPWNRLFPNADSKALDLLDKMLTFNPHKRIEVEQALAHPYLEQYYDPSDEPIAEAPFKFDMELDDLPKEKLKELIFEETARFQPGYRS
D(1A) dopamine receptor, sequence (P21728 whole entry): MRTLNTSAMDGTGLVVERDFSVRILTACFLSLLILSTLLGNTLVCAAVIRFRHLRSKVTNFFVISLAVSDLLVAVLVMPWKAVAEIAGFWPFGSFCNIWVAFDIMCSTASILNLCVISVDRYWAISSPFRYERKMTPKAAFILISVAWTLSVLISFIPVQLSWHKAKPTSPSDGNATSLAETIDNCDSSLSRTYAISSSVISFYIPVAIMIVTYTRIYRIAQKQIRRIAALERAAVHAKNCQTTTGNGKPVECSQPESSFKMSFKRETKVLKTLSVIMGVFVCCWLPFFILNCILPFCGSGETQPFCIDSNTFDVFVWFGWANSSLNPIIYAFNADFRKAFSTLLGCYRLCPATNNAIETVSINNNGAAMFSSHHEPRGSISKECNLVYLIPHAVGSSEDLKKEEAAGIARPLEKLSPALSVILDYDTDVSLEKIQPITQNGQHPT
Sigma intracellular receptor 2 (Homo sapiens), sequence (Q5BJF2 whole entry): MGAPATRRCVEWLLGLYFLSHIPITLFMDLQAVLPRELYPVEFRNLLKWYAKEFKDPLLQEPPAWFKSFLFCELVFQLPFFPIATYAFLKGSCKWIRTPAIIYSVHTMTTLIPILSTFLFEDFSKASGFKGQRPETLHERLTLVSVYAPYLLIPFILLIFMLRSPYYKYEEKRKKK

CC[C@@H](Nc1c(C#N)c(-c2ccc(-c3cccc(C)c3F)cc2)nc2cnccc12)C(=O)O [BAY-091]
Ki [1]: 1500 nM | inhibition [2]: 10.5% | inhibition [3]: -3.68% | inhibition [4]: 13.8% | inhibition [5]: 11.3% | inhibition [6]: 9.07% | inhibition [7]: 5.5% | inhibition [8]: 2.1% | inhibition [9]: 1.4% | inhibition [10]: -1% | inhibition [11]: -5.04% | inhibition [12]: 0.16% | inhibition [13]: -6.26% | inhibition [14]: 12% | inhibition [15]: 8.64% | inhibition [16]: 3.03% | inhibition [17]: 6.43% | inhibition [18]: 21.5% | inhibition [19]: 3.07% | inhibition [20]: 18% | inhibition [21]: 1.48% | inhibition [22]: 8.41% | inhibition [23]: 9.33% | inhibition [24]: -8.83% | inhibition [25]: 10.9% | inhibition [26]: 19.7% | inhibition [27]: 3.4% | inhibition [28]: -8.51% | inhibition [29]: 14.9% | inhibition [30]: -3.49% | inhibition [31]: 2.25% | inhibition [32]: -0.87% | inhibition [33]: 8.88% | inhibition [34]: 1.22% | inhibition (Homo sapiens): 11.8% | inhibition [35]: 5.05% | inhibition [36]: 29% | inhibition [37]: -8.43% | inhibition (D(1A) dopamine receptor): -3.98% | inhibition [38]: 24.6% | inhibition [39]: 27% | inhibition [40]: 8% | inhibition [41]: 25% | inhibition [42]: 16% | inhibition [43]: 1% | inhibition [44]: 14% | inhibition [45]: 42%
